In patent publication US20090042964A1, “AMINO-5-[SUBSTITUTED-4-(DIFLUOROMETHOXY)PHENYL]-5-PHENYLIMIDAZOLONE COMPOUNDS AS BETA-SECRETASE INHIBITORS” (Wyeth, priority 2007, published 2009):
Read-outs that look alike come from different tables or passages of the source.

Target: human BACE1 (Homo sapiens, UniProt P56817)
Experiment: Fluorescent kinetic assay, evaluation of BACE1 binding affinity of test compounds
Type: biochemical
Conditions: 10 nM human BACE1, 25 μM substrate WABC-6, pH 4.5, room temperature
Outline: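 Kinetic fluorescence assay: enzyme added last to inhibitor and substrate mix, reading started immediately; substrate at 100 μM working dilution (25 μL in 100 μL total). Buffer 66.7 mM Na-acetate pH 4.5 with 0.0667% CHAPS for inhibitor and enzyme dilutions; enzyme stock quantified at 280 nm.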

human BACE1, sequence (P56817 46-501): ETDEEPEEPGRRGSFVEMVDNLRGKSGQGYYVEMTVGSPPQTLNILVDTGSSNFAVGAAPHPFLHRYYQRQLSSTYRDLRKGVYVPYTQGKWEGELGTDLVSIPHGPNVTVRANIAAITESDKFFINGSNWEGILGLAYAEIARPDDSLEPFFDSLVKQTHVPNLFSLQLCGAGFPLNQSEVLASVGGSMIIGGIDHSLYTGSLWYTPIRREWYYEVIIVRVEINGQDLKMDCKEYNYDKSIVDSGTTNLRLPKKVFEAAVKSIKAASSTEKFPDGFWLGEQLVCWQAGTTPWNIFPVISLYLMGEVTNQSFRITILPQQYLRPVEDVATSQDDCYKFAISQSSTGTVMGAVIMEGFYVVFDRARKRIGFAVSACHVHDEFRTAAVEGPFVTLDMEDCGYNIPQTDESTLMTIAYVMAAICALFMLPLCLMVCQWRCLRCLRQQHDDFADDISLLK

In the case of `Cc1cc([C@@]2(c3ccc(F)c(OCCC(F)F)c3)N=C(N)N(C)C2=O)ccc1OC(F)F` [Example 131, (5S)-2-Amino-5-[4-(difluoromethoxy)-3-methylphenyl]-5-[3-(3,3-difluoropropoxy)-4-fluorophenyl]-3-methyl-3,5-dihydro-4H-imidazol-4-one], the IC50 (read-out: BACE1 IC50) is reported as > 1 µM.
With `Cc1cc(C2(c3ccc(OC(F)F)c(C)c3)N=C(N)N(C)C2=O)ccc1OC(F)F` [Example 71, 2-Amino-5,5-bis-[4-(difluoromethoxy)-3-methylphenyl]-3-methyl-3,5-dihydro-4H-imidazol-4-one] the IC50 (read-out: BACE1 IC50) was 0.11 to 1 µM.
In the case of `Cc1cc(C2(c3ccc(F)c(OCC4CC4)c3)N=C(N)N(C)C2=O)ccc1OC(F)F` (stereo not shown) [Example 105, 2-Amino-5-[3-(cyclopropylmethoxy)-4-fluorophenyl]-5-[4-(difluoromethoxy)-3-methylphenyl]-3-methyl-3,5-dihydro-4H-imidazol-4-one], the IC50 (read-out: BACE1 IC50) is reported as < 0.1 µM.
With `CCc1cc(C2(c3ccc(F)c(C#CC(C)C)c3)N=C(N)N(C)C2=O)ccc1OC(F)F` (stereo not shown) [Example 153, 2-Amino-5-[4-(difluoromethoxy)-3-ethylphenyl]-5-[4-fluoro-3-(3-methylbut-1-yn-1-yl)phenyl]-3-methyl-3,5-dihydro-4H-imidazol-4-one] the IC50 (read-out: BACE1 IC50) was < 0.1 µM.
Work on `CCC#Cc1cc([C@]2(c3ccc(OC(F)F)c(C)c3)N=C(N)N(C)C2=O)ccc1F` (single isomer, unassigned) [Example 84] yielded an IC50 (read-out: BACE1 IC50) of 0.11 to 1 µM.
With `CN1C(=O)C(c2ccc(F)c(C#CCCF)c2)(c2ccc(OC(F)F)c(CCF)c2)N=C1N` (stereo not shown) [Example 91, 2-amino-5-[4-(difluoromethoxy)-3-(2-fluoroethyl)phenyl]-5-[4-fluoro-3-(4-fluorobut-1-yn-1-yl)phenyl]-3-methyl-3,5-dihydro-4H-imidazol-4-one] the IC50 (read-out: BACE1 IC50) was < 0.1 µM.
For `CCc1cc(C2(c3ccc(F)c(OCCCF)c3)N=C(N)N(C)C2=O)ccc1OC(F)F` (stereo not shown) [Example 120, 2-Amino-5-[4-(difluoromethoxy)-3-ethylphenyl]-5-[4-fluoro-3-(3-fluoropropoxy)phenyl]-3-methyl-3,5-dihydro-4H-imidazol-4-one], the IC50 (read-out: BACE1 IC50) was < 0.1 µM.
For `CN1C(=O)[C@@](c2ccccc2)(c2ccc(OC(F)F)c(Cl)c2)N=C1N` [Example 28, (5R)-2-Amino-5-[3-chloro-4-(difluoromethoxy)phenyl]-1-methyl-5-phenyl-3,5-dihydro-4H-imidazol-4-one], the IC50 (BACE1 IC50 μM) was > 1 µM.
For `CCCc1cc(C2(c3ccccc3)N=C(N)N(C)C2=O)ccc1OC(F)F` (stereo not shown) [Example 8, 2-Amino-5-[4-(difluoromethoxy)-3-propylphenyl]-3-methyl-5-phenyl-3,5-dihydro-4H-imidazol-4-one], the IC50 (BACE1 IC50 μM) was 0.11 to 1 µM.
With `CC(C)C#Cc1cccc([C@]2(c3ccc(OC(F)F)c(C4CC4)c3)N=C(N)N(C)C2=O)c1` (single isomer, unassigned) [Example 175] the IC50 (read-out: BACE1 IC50) was > 1 µM.
Compound `CCc1cc(C2(c3ccccc3)N=C(N)N(C)C2=O)ccc1OC(F)F` (stereo not shown) [Example 6, 2-Amino-5-[4-(difluoromethoxy)-3-ethylphenyl]-3-methyl-5-phenyl-3,5-dihydro-4H-imidazol-4-one] has an IC50 (BACE1 IC50 μM) of 0.11 to 1 µM.
In the case of `CCOc1cccc(C2(c3ccc(OC(F)F)c(Cl)c3)N=C(N)N(C)C2=O)c1` (stereo not shown) [Example 36, 2-Amino-5-[3-chloro-4-(difluoromethoxy)phenyl]-5-(3-ethoxyphenyl)-3-methyl-3,5-dihydro-4H-imidazol-4-one], the IC50 (read-out: BACE1 IC50) is reported as 0.11 to 1 µM.
In the case of `Cc1cc(C2(c3ccc(F)c(OC(C)C)c3)N=C(N)N(C)C2=O)ccc1OC(F)F` (stereo not shown) [Example 195, 2-amino-5-[4-(difluoromethoxy)-3-methylphenyl]-5-(4-fluoro-3-isopropoxyphenyl)-3-methyl-3,5-dihydro-4H-imidazol-4-one], the IC50 (read-out: BACE1 IC50) is reported as 0.11 to 1 µM.
For `CCCCOc1cccc(C2(c3ccc(OC(F)F)c(Cl)c3)N=C(N)N(C)C2=O)c1` (stereo not shown) [Example 35, 2-Amino-5-(3-butoxyphenyl)-5-[3-chloro-4-(difluoromethoxy)-phenyl]-3-methyl-3,5-dihydro-4H-imidazol-4-one], the IC50 (read-out: BACE1 IC50) was < 0.1 µM.
For `CCC#Cc1cc(C2(c3ccc(OC(F)F)c(C)c3)N=C(N)N(C)C2=O)ccc1F` (stereo not shown) [Example 82, 2-amino-5-(3-but-1-yn-1-yl-4-fluorophenyl)-5-[4-(difluoromethoxy)-3-methylphenyl]-3-methyl-3,5-dihydro-4H-imidazol-4-one], the IC50 (read-out: BACE1 IC50) was < 0.1 µM.
`CN1C(=O)C(c2ccccc2)(c2ccc(OC(F)F)c(CCO)c2)N=C1N` (stereo not shown) [Example 140, 2-Amino-5-[4-(difluoromethoxy)-3-(2-hydroxyethyl)phenyl]-3-methyl-5-phenyl-3,5-dihydro-4H-imidazol-4-one] gave an IC50 (read-out: BACE1 IC50) of 0.11 to 1 µM.
With `CC(C)CC#Cc1cc(C2(c3ccc(OC(F)F)c(CCF)c3)N=C(N)N(C)C2=O)ccc1F` (stereo not shown) [Example 90, 2-amino-5-[4-(difluoromethoxy)-3-(2-fluoroethyl)phenyl]-5-[4-fluoro-3-(4-methylpent-1-yn-1-yl)phenyl]-3-methyl-3,5-dihydro-4H-imidazol-4-one] the IC50 (read-out: BACE1 IC50) was < 0.1 µM.
In the case of `CN1C(=O)C(c2ccc(OC(F)F)c(CCF)c2)(c2ccc(F)c(OCC(F)F)c2)N=C1N` (stereo not shown) [Example 129, 2-Amino-5-[3-(2,2-difluoroethoxy)-4-fluorophenyl]-5-[4-(difluoromethoxy)-3-(2-fluoroethyl)phenyl]-3-methyl-3,5-dihydro-4H-imidazol-4-one], the IC50 (read-out: BACE1 IC50) is reported as < 0.1 µM.
With `CN1C(=O)C(c2ccccc2)(c2ccc(OC(F)F)c(F)c2)N=C1N` (stereo not shown) [Example 17, 2-Amino-5-[4-(difluoromethoxy)-3-fluorophenyl]-3-methyl-5-phenyl-3,5-dihydro-4H-imidazol-4-one] the IC50 (BACE1 IC50 μM) was 0.11 to 1 µM.
In the case of `CCc1cc([C@]2(c3ccc(F)c(C#CCF)c3)N=C(N)N(C)C2=O)ccc1OC(F)F` [Example 162, (5R)-2-Amino-5-[4-(difluoromethoxy)-3-ethylphenyl]-5-[4-fluoro-3-(3-fluoroprop-1-yn-1-yl)phenyl]-3-methyl-3,5-dihydro-4H-imidazol-4-one], the IC50 (read-out: BACE1 IC50) is reported as < 0.1 µM.
In the case of `CCC#Cc1cc([C@@]2(c3ccc(OC(F)F)c(C)c3)N=C(N)N(C)C2=O)ccc1F` (single isomer, unassigned) [Example 83], the IC50 (read-out: BACE1 IC50) is reported as < 0.1 µM.
For `COCCC#Cc1cccc(C2(c3ccc(OC(F)F)c(C4CC4)c3)N=C(N)N(C)C2=O)c1` (stereo not shown) [Example 183, 2-amino-4-(3-cyclopropyl-4-(difluoromethoxy)phenyl)-4-(3-(4-methoxybut-1-ynyl)phenyl)-1-methyl-1H-imidazol-5(4H)-one], the IC50 (read-out: BACE1 IC50) was < 0.1 µM.
For `Cc1cc([C@]2(c3cccc(OCCC(F)F)c3)N=C(N)N(C)C2=O)ccc1OC(F)F` [Example 127, (5R)-2-Amino-5-[4-(difluoromethoxy)-3-methylphenyl]-5-[3-(3,3-difluoropropoxy)phenyl]-3-methyl-3,5-dihydro-4H-imidazol-4-one], the IC50 (read-out: BACE1 IC50) was < 0.1 µM.
Compound `CCCC#Cc1cc([C@]2(c3ccc(OC(F)F)c(C)c3)N=C(N)N(C)C2=O)ccc1F` (single isomer, unassigned) [Example 73] has an IC50 (read-out: BACE1 IC50) of 0.11 to 1 µM.
With `CCc1cc([C@@]2(c3ccc(F)c(C#CCF)c3)N=C(N)N(C)C2=O)ccc1OC(F)F` [Example 163, (5S)-2-Amino-5-[4-(difluoromethoxy)-3-ethylphenyl]-5-[4-fluoro-3-(3-fluoroprop-1-yn-1-yl)phenyl]-3-methyl-3,5-dihydro-4H-imidazol-4-one] the IC50 (read-out: BACE1 IC50) was 0.11 to 1 µM.
`CN1C(=O)C(c2ccc(OC(F)F)c(Cl)c2)(c2ccc(F)c(OCC(F)F)c2)N=C1N` (stereo not shown) [Example 100, 2-Amino-5-[3-chloro-4-(difluoromethoxy)phenyl]-5-[3-(2,2-difluoroethoxy)-4-fluorophenyl]-3-methyl-3,5-dihydro-4H-imidazol-4-one] was tested, and the IC50 (read-out: BACE1 IC50) was < 0.1 µM.
In the case of `Cc1cc(C2(c3ccc(F)c(OCCC(F)F)c3)N=C(N)N(C)C2=O)ccc1OC(F)F` (stereo not shown) [Example 130, 2-Amino-5-[4-(difluoromethoxy)-3-methylphenyl]-5-[3-(3,3-difluoropropoxy)-4-fluorophenyl]-3-methyl-3,5-dihydro-4H-imidazol-4-one], the IC50 (read-out: BACE1 IC50) is reported as < 0.1 µM.
In the case of `Cc1cc([C@]2(c3ccc(F)c(OCCCF)c3)N=C(N)N(C)C2=O)ccc1OC(F)F` [Example 111, (5R)-2-Amino-5-[4-(difluoromethoxy)-3-methylphenyl]-5-[4-fluoro-3-(3-fluoropropoxy)phenyl]-3-methyl-3,5-dihydro-4H-imidazol-4-one], the IC50 (read-out: BACE1 IC50) is reported as < 0.1 µM.
In the case of `CCCC#Cc1cccc(C2(c3ccc(OC(F)F)c(C4CC4)c3)N=C(N)N(C)C2=O)c1` (stereo not shown) [Example 172, 2-amino-4-(3-cyclopropyl-4-(difluoromethoxy)phenyl)-1-methyl-4-(3-(pent-1-ynyl)phenyl)-1H-imidazol-5(4H)-one], the IC50 (read-out: BACE1 IC50) is reported as 0.11 to 1 µM.
`Cc1cc([C@]2(c3ccc(F)cc3)N=C(N)N(C)C2=O)ccc1OC(F)F` [Example 4A, (5S)-2-Amino-4-(4-(difluoromethoxy)-3-methylphenyl)-4-(4-fluorophenyl)-1-methyl-1H-imidazol-5(4H)-one] was tested, and the IC50 (read-out: BACE1 IC50) was > 1 µM.
For `CC#Cc1cccc([C@]2(c3ccc(OC(F)F)c(C4CC4)c3)N=C(N)N(C)C2=O)c1` (single isomer, unassigned) [Example 170], the IC50 (read-out: BACE1 IC50) was > 1 µM.
For `Cc1cc([C@]2(c3ccc(F)c(C#CCCF)c3)N=C(N)N(C)C2=O)ccc1OC(F)F` [Example 205, (5R)-2-amino-5-[4-(difluoromethoxy)-3-methylphenyl]-5-[4-fluoro-3-(4-fluorobut-1-yn-1-yl)phenyl]-3-methyl-3,5-dihydro-4H-imidazol-4-one], the IC50 (read-out: BACE1 IC50) was < 0.1 µM.
With `Cc1cc(C2(c3cccc(OCCCF)c3)N=C(N)N(C)C2=O)ccc1OC(F)F` (stereo not shown) [Example 45, 2-Amino-5-[4-(difluoromethoxy)-3-methylphenyl]-5-[3-(3-fluoropropoxy)phenyl]-3-methyl-3,5-dihydro-4H-imidazol-4-one] the IC50 (read-out: BACE1 IC50) was < 0.1 µM.
Compound `CN1C(=O)C(c2ccc(F)c(O)c2)(c2ccc(OC(F)F)c(Cl)c2)N=C1N` (stereo not shown) [Example 95, 2-Amino-5-[3-chloro-4-(difluoromethoxy)phenyl]-5-(4-fluoro-3-hydroxyphenyl)-3-methyl-3,5-dihydro-4H-imidazol-4-one] has an IC50 (read-out: BACE1 IC50) of 0.11 to 1 µM.
